Laboratory results as given in patent US20180282331A1, “7-Oxo -6-(sulfooxy)- 1,6-diazabicyclo [3.2.1] octane containing compounds and their use in treatment of bacterial infections (changed by PCT to: 7-OXO -6-(SULFOOXY)- 1,6-DIAZABICYCLO [3.2.1] OCTANE CONTAINING COMPOUNDS AND THEIR USE IN TREATMENT OF BACTERIAL INFECTIONS” (WOCKHARDT LIMITED, priority 2015, published 2018).

Legend:
Type in all cases: cell-based
[1] = system: K. pneumoniae H521; experiment: MIC of Ceftazidime in combination with compound (4 mcg/ml), agar dilution; details: Klebsiella pneumoniae, Ceftazidime alone or with constant 4 mcg/ml of compound
Description: (§1) The biological activity of representative compounds according to the invention against various bacterial strains was investigated. The Minimum Inhibitory Concentration (MIC) determination for the combinations was carried out in Muller Hinton Agar (MHA) (BD, USA) according to Clinical and Laboratory Standards Institute (CLSI) recommendations, (Clinical and Laboratory Standards Institute (CLSI), Performance Standards for Antimicrobial Susceptibility Testing, 20th Informational Supplement, M 100-S20, Volume 30, No. 1, 2010). In short, the test strains were adjusted to deliver about 10^4 CFU per spot with a multipoint inoculator (Applied Quality Services, UK). The plates were poured with MHA containing doubling concentration range of representative compounds according to present invention. The plates were inoculated and were incubated at 35° C. for 18 hours. […] The Table 5 depicts the antibacterial activity profile of compounds according to present invention against various multidrug resistant bacterial strains.
(§2) The combinations of compounds according to present invention were also tested for their antibacterial activity in combination with Ceftazidime. The plates were poured with MHA containing doubling concentration range of Ceftazidime in combination with constant concentration (4 mcg/ml) of representative compounds of Formula (I).

[2] = system: K. pneumoniae H525; experiment: as above; details: Klebsiella pneumoniae, Ceftazidime alone or with constant 4 mcg/ml of compound
Description: as §1, §2

[3] = system: E. coli NCTC 13353; experiment: as above; details: Escherichia coli, NCTC13353, Ceftazidime alone or with constant 4 mcg/ml of compound
Description: as §1, §2

[4] = system: E. coli M 50; experiment: as above; details: Escherichia coli, M50, Ceftazidime alone or with constant 4 mcg/ml of compound
Description: as §1, §2

[5] = system: E. coli 7 MP; experiment: as above; details: Escherichia coli, Ceftazidime alone or with constant 4 mcg/ml of compound
Description: as §1, §2

[6] = system: K. pneumoniae ATCC 700603; experiment: as above; details: Klebsiella pneumoniae, ATCC700603, Ceftazidime alone or with constant 4 mcg/ml of compound
Description: as §1, §2

[7] = system: E. coli NCTC 13352; experiment: as above; details: Escherichia coli, NCTC13352, Ceftazidime alone or with constant 4 mcg/ml of compound
Description: as §1, §2

[8] = system: K. pneumoniae H521; experiment: MIC, agar dilution (MHA), compound alone
Description: as §1

[9] = system: K. pneumoniae H525; experiment: MIC, agar dilution (MHA), compound alone
Description: as §1

[10] = system: E. coli NCTC 13353; experiment: MIC, agar dilution (MHA), compound alone
Description: as §1

[11] = system: E. coli M 50; experiment: MIC, agar dilution (MHA), compound alone
Description: as §1

[12] = system: E. coli 7 MP; experiment: MIC, agar dilution (MHA), compound alone
Description: as §1

[13] = system: K. pneumoniae ATCC 700603; experiment: MIC, agar dilution (MHA), compound alone
Description: as §1

[14] = system: E. coli NCTC 13352; experiment: MIC, agar dilution (MHA), compound alone
Description: as §1

[15] = Klebsiella pneumoniae, K. pneumoniae H521, compound alone, MHA, 35° C., 18 hours, read-out: MIC
[16] = Klebsiella pneumoniae, K. pneumoniae H525, compound alone, MHA, 35° C., 18 hours, read-out: MIC
[17] = Escherichia coli, NCTC13353, E. coli NCTC 13353, compound alone, MHA, 35° C., 18 hours, read-out: MIC
[18] = Escherichia coli, M50, E. coli M 50, compound alone, MHA, 35° C., 18 hours, read-out: MIC
[19] = Escherichia coli, E. coli 7 MP, compound alone, MHA, 35° C., 18 hours, read-out: MIC
[20] = Klebsiella pneumoniae, ATCC700603, K. pneumoniae ATCC 700603, compound alone, MHA, 35° C., 18 hours, read-out: MIC
[21] = Escherichia coli, NCTC13352, E. coli NCTC 13352, compound alone, MHA, 35° C., 18 hours, read-out: MIC

Row | SMILES | MIC [8, 15] | MIC [9, 16] | MIC [10, 17] | MIC [11, 18] | MIC [12, 19] | MIC [13, 20] | MIC [14, 21] | other results
1 | CC(C)(O/N=C(\C(=O)N[C@@H]1C(=O)N2C(C(=O)[O-])=C(C[n+]3ccccc3)CS[C@H]12)c1csc(N)n1)C(=O)O [Ceftazidime] |  |  |  |  |  |  |  | MIC [1]: > 32 µg/mL; MIC [2]: > 32 µg/mL; MIC [3]: > 32 µg/mL; MIC [4]: > 32 µg/mL; MIC [5]: > 32 µg/mL; MIC [6]: 16 µg/mL; MIC [7]: 16 µg/mL
2 | O=C(Cn1ccnc1COC(=O)[C@@H]1CCCN1)NNC(=O)[C@@H]1CC[C@@H]2CN1C(=O)N2OS(=O)(=O)O [Example 34] | 2 µg/mL | 1 µg/mL | 1 µg/mL | 1 µg/mL | 4 µg/mL | > 32 µg/mL | 1 µg/mL | 
3 | C[C@H](N)C(=O)OCc1nccn1CC(=O)NNC(=O)[C@@H]1CC[C@@H]2CN1C(=O)N2OS(=O)(=O)O [Example 35] | 2 µg/mL | 2 µg/mL | 1 µg/mL | 1 µg/mL | 4 µg/mL | > 32 µg/mL | 1 µg/mL | 
4 | Nc1ccn(CC(=O)NNC(=O)[C@@H]2CC[C@@H]3CN2C(=O)N3OS(=O)(=O)[O-])c(=O)n1.[Na+] [Example 37] |  |  |  |  |  |  |  | MIC ([8]; Klebsiella pneumoniae, H521, 18 h): 4 µg/mL; MIC ([9]; Klebsiella pneumoniae, H525, 18 h): 4 µg/mL; MIC ([10]; Escherichia coli, NCTC13353, 18 h): 1 µg/mL; MIC ([11]; Escherichia coli, M50, 18 h): 1 µg/mL; MIC ([12]; Escherichia coli, 7MP, 18 h): 4 µg/mL; MIC ([13]; Klebsiella pneumoniae, ATCC700603, 18 h): > 32 µg/mL; MIC ([14]; Escherichia coli, NCTC13352, 18 h): 2 µg/mL
5 | O=C(Cn1nnnc1CCO)NNC(=O)[C@@H]1CC[C@@H]2CN1C(=O)N2OS(=O)(=O)O.[Na] [Example 38, Sodium salt of (2S,5R)-N′-{[5-(2-hydroxyethyl)-1H-tetrazol-1-yl]acetyl}-7-oxo-6-(sulfooxy)-1,6-diazabicyclo[3.2.1]octane-2-carbohydrazide] |  |  |  |  |  |  |  | MIC ([8]; K. pneumoniae H521, compound alone, MHA, 35° C., 18 hours): 0.5 µg/mL; MIC ([9]; K. pneumoniae H525, compound alone, MHA, 35° C., 18 hours): 0.5 µg/mL; MIC ([10]; E. coli NCTC 13353, compound alone, MHA, 35° C., 18 hours): 0.25 µg/mL; MIC ([11]; E. coli M 50, compound alone, MHA, 35° C., 18 hours): 0.25 µg/mL; MIC ([12]; E. coli 7 MP, compound alone, MHA, 35° C., 18 hours): 1 µg/mL; MIC ([13]; K. pneumoniae ATCC 700603, compound alone, MHA, 35° C., 18 hours): >32 µg/mL; MIC ([14]; E. coli NCTC 13352, compound alone, MHA, 35° C., 18 hours): 0.25 µg/mL
6 | O=C(Cn1nnc(CCO)n1)NNC(=O)[C@@H]1CC[C@@H]2CN1C(=O)N2OS(=O)(=O)[O-].[Na+] [Example 39] | 1 µg/mL | 2 µg/mL | 0.5 µg/mL | 0.5 µg/mL | 1 µg/mL | > 32 µg/mL | 0.5 µg/mL | 
7 | O=C(Cn1ccnc1CCO)NNC(=O)[C@@H]1CC[C@@H]2CN1C(=O)N2OS(=O)(=O)[O-].[Na+] [Example 40] | 4 µg/mL | 2 µg/mL | 1 µg/mL | 2 µg/mL | 4 µg/mL | > 32 µg/mL | 2 µg/mL | 
8 | O=C(Cn1ccnc1CO)NNC(=O)[C@@H]1CC[C@@H]2CN1C(=O)N2OS(=O)(=O)[O-].[Na+] [Example 42] | 2 µg/mL | 1 µg/mL | 0.5 µg/mL | 0.5 µg/mL | 2 µg/mL | > 32 µg/mL | 1 µg/mL | 
9 | NCc1nnn(CCONC(=O)[C@@H]2CC[C@@H]3CN2C(=O)N3OS(=O)(=O)O)n1 [Example 44, (2S,5R)-N-{2-[5-(aminomethyl)-2H-tetrazol-2-yl]ethoxy}-7-oxo-6-(sulfooxy)-1,6-diazabicyclo[3.2.1]octane-2-carboxamide] | > 32 µg/mL | > 32 µg/mL | > 32 µg/mL | > 32 µg/mL | > 32 µg/mL | > 32 µg/mL | > 32 µg/mL | 
10 | NCCc1nnn(CCONC(=O)[C@@H]2CC[C@@H]3CN2C(=O)N3OS(=O)(=O)O)n1 [Example 46] | 4 µg/mL | 4 µg/mL | 4 µg/mL | 4 µg/mL | 32 µg/mL | > 32 µg/mL | 8 µg/mL | 
11 | O=C(NOCCn1ccnn1)[C@@H]1CC[C@@H]2CN1C(=O)N2OS(=O)(=O)O [Example 47] | > 32 µg/mL | > 32 µg/mL | 8 µg/mL | 8 µg/mL | 32 µg/mL | > 32 µg/mL | 8 µg/mL | 

Continued, in another order:

Row | MIC [8, 15] | MIC [9, 16] | MIC [10, 17] | MIC [11, 18] | MIC [12, 19] | MIC [13, 20] | MIC [14, 21] | SMILES | other results
12 | > 32 µg/mL | 32 µg/mL | 8 µg/mL | 8 µg/mL | > 32 µg/mL | > 32 µg/mL | 16 µg/mL | O=C(NOCCn1cncn1)[C@@H]1CC[C@@H]2CN1C(=O)N2OS(=O)(=O)O [Example 48] | 
13 | > 32 µg/mL | > 32 µg/mL | > 32 µg/mL | > 32 µg/mL | > 32 µg/mL | > 32 µg/mL | > 32 µg/mL | CCOC(=O)c1nnnn1CCONC(=O)[C@@H]1CC[C@@H]2CN1C(=O)N2OS(=O)(=O)[O-].[Na+] [Example 49] | 
14 | > 32 µg/mL | > 32 µg/mL | 8 µg/mL | 8 µg/mL | 32 µg/mL | > 32 µg/mL | 8 µg/mL | O=C(NOCCn1ncnn1)[C@@H]1CC[C@@H]2CN1C(=O)N2OS(=O)(=O)[O-].[Na+] [Example 50] | 
15 | > 32 µg/mL | > 32 µg/mL | 4 µg/mL | 4 µg/mL | 16 µg/mL | > 32 µg/mL | 8 µg/mL | O=C(NOCCn1cnnn1)[C@@H]1CC[C@@H]2CN1C(=O)N2OS(=O)(=O)[O-].[Na+] [Example 51] | 
16 | 16 µg/mL | 16 µg/mL | 4 µg/mL | > 32 µg/mL | 32 µg/mL | > 32 µg/mL | 8 µg/mL | Cc1nnnn1CCONC(=O)[C@@H]1CC[C@@H]2CN1C(=O)N2OS(=O)(=O)[O-].[Na+] [Example 53] | 
17 | > 32 µg/mL | > 32 µg/mL | 16 µg/mL | 16 µg/mL | > 32 µg/mL | > 32 µg/mL | 32 µg/mL | O=C(NOCCn1nnc(CCO)n1)[C@@H]1CC[C@@H]2CN1C(=O)N2OS(=O)(=O)[O-].[Na+] [Example 55] | 
18 | 8 µg/mL | 16 µg/mL | 4 µg/mL | 4 µg/mL | > 32 µg/mL | > 32 µg/mL | 8 µg/mL | O=C(NOCCn1nnnc1CCO)[C@@H]1CC[C@@H]2CN1C(=O)N2OS(=O)(=O)[O-].[Na+] [Example 56] | 
